{"source": "patent EP0888346B1", "about": "“CORALYNE ANALOGS AS TOPOISOMERASE INHIBITORS” (RUTGERS, THE STATE UNIVERSITY OF NEW JERSEY, priority 1996, dated 1997)", "key": {"human topoisomerase I": {"target": "T1, human topoisomerase I (Homo sapiens, UniProt P11387)", "T1 construct": "15 amino acid vector-derived fusion (pET-11a leader); made in house; host or cells: E. coli BL21(DE3)", "T1 sequence (P11387 1-765)": "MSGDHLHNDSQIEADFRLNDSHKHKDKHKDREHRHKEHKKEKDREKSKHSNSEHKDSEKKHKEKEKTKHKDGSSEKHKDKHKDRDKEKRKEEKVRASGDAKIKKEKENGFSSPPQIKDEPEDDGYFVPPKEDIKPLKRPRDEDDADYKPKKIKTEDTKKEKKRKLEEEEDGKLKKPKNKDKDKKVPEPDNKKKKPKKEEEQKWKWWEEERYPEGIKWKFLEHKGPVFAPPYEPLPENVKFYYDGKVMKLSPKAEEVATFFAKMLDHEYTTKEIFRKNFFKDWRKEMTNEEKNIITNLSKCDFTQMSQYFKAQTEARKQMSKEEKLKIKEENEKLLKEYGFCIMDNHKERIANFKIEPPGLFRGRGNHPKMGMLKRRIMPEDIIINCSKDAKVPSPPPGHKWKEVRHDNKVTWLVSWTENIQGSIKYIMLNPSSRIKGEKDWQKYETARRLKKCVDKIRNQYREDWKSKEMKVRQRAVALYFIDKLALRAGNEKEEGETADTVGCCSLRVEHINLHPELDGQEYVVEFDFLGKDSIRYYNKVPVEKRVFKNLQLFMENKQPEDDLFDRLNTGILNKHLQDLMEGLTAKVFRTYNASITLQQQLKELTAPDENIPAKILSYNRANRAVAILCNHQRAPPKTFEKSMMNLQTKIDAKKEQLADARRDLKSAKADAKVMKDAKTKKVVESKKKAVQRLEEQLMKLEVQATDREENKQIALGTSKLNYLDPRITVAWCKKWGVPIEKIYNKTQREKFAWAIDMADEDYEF", "assay": "Topo I cleavage assay (plasmid YEpG DNA)", "format": "biochemical", "details": "concentration relative to camptothecin (CPT) = 1 producing the same cleavage on the plasmid DNA", "description": "To obtain large quantity of human topoisomerase I, the human topoisomerase I cDNA was cloned into the pET-11a vector, in which transcription of the cDNA is under the control of the inducible T7 promoter (Studier et al., Methods in Enzymol., Vol. 185:60-89, San Diego: Academic Press (1990)). Briefly, a 3.4 kb DNA fragment containing the entire coding sequence of human topoisomerase I and approximately 1 kb of untranslated region downstream of the stop codon was isolated from the plasmid YCpGAL1-hTOP1 (Bjornsti et al., Cancer Res. 49:6318-6323 (1989)) by cutting at the BamHI and EcoRI sites. The vector pET-11a was cut with the same restriction enzymes, dephosphorylated and ligated to the insert in the proper reading-frame downstream of the vector cloning site. The ligation mixture was used to transform E. coli, the correct clone pET1B was isolated (see figure 2A for the map) and its identity confirmed by restriction mapping. Since the translational start in pET is positioned at an upstream NdeI site, the expressed topoisomerase I has a 15 amino acid fusion at its N-terminus. pET1B was then transformed into E. coli BL21(DE3), and, upon induction with 0.4 mM IPTG for 1 hour, the bacterial lysate was analyzed by 10 % SDS-PAGE. Expression was confirmed by Western blotting using rabbit antibodies against human topoisomerase I. Isolation of the expressed protein was done by a simple procedure. Briefly, E. coli cells were lysed by repeated sonic bursts. The sonic extract was made in 1 M NaCl and 6% polyethylene glycol (PEG) to remove nucleic acids. The PEG supernatant was chromatographed directly on a hydroxyapatite column. Expressed human DNA topoisomerase I was eluted at the 0.6 M potassium phosphate step. The eluted enzyme was dialyzed against 50% glycerol, 30 mM potassium phosphate (pH 7.0), 1 mM dithiothreitol (DTT) and 0.1 mM EDTA and stored at -20°C.\n(§1) Cleavage assays for the recombinant topoisomerases I and calf thymus topoisomerases I and II were done as described (Liu et al., J. Biol. Chem. 258:15365-15370 (1983)). The plasmid YEpG DNA used for the cleavage assays was prepared and labeled at its 3'-end using the published procedures."}, "[1]": {"tested_on": "calf thymus topoisomerase II", "assay": "Topo II cleavage assay (plasmid YEpG DNA)", "format": "biochemical", "details": "concentration relative to VM-26 = 1 producing the same cleavage on the plasmid DNA", "description": "The plasmid pET11a and the E. coli strain BL21(DE3) used for enzyme expression were purchased from Novagen. IPTG was purchased from Sigma. The ECL system used for the Western blotting analysis of bacterial lysates was from Amersham (UK). All the restriction enzymes and Vent polymerase were from New England Biolabs. Mammalian topoisomerase II was isolated from calf thymus glands according to the published procedure (Halligan et al., J. Biol. Chem. 260:2475-2482 (1985)). The single copy yeast plasmids YCpGAL1 expressing various topoisomerase I genes in JN2-134 yeast strain were a kind gift of Dr. M-A. Bjornsti (Thomas Jefferson University, Philadelphia, PA). All bacterial and yeast media were from Difco (Detroit, MI), while cell culture media were purchased from Gibco-BRL (Gaithersburg, MD).\nas §1"}, "[2]": {"tested_on": "Human lymphoblast RPMI 8402 cells", "assay": "MTT-microtiter plate tetrazolinium cytotoxicity assay (MTA)", "format": "cell-based", "description": "The results were plotted and the IC50 then measured."}, "[3]": {"tested_on": "camptothecin-resistant CPT-K5 cells", "assay": "MTT-microtiter plate tetrazolinium cytotoxicity assay (MTA), camptothecin-resistant cells", "procedure": "The IC50 of the drugs tested were determined by the MTT-microtiter plate tetrazolinium cytotoxicity assay (MTA) (Mosmann, T., J. Immunol. Methods 65:55-63 (1983); Denizot et al., J. Immunol. Methods 89:271-277 (1986)). Human lymphoblast RPMI 8402 cells and their camptothecin-resistant CPT-K5 cells (Andoh et al., Proc. Natl. Acad. Sci., USA 84:5565-5569 (1987)) were kindly provided by Dr. Toshiwo Andoh (Aichi Cancer Center Research Institute, Nagoya, Japan). […] Cells (2000 cells/well, seeded in […] growth medium) were grown in suspension at 37°C in 5% CO2 and maintained by regular passage in RPMI medium supplemented with 10% heat inactivated fetal bovine serum, L-glutamine (2 mM), penicillin (100 U/ml), and streptomycin (0.1 mg/ml). The cells were exposed continuously for 4 days to different drug concentrations, and assayed at the end of the fourth day. Each concentration and the no drug control were repeated at least twice in 6 replica wells. The results were plotted and the IC50 then measured. The drug sensitive human epidermoid carcinoma KB 3-1 cell line and its vinblastine-selected multidrug-resistant variant KB-V1 cells (Akiyama et al., Genetics 11:117-126 (1985)) were kindly provided by Dr. Michael Gottesmann (National Cancer Institute). They were grown as monolayer cultures at 37°C in 5% CO2 and maintained by regular passage in Dulbecco's minimal essential medium supplemented with 10% heat inactivated fetal bovine serum. KB-V1 cells were maintained in the presence of […] vinblastine."}, "[4]": {"details": "Homo sapiens, RPMI 8402, 96 h, read-out: Cytotoxicity IC50 RPMI"}, "[5]": {"details": "Homo sapiens, CPT-K5, 96 h, read-out: Cytotoxicity IC50 CPT-K5"}}, "note": "Read-outs that look alike come from different tables or passages of the source."}
{"molecule": "6,7-Dihydroxy-1,2-dimethyl-3-(3, 4-dihydroxyphenyl)isoquinolinium methosulfate [Compound 15]", "values": [{"measurement": "Topo I-mediated DNA cleavage (REC, Relative Effective Concentration)", "setting": "human topoisomerase I", "value": 1000}, {"measurement": "Topo II-mediated DNA cleavage (REC, Relative Effective Concentration)", "setting": "[1]", "value": ">1000"}, {"measurement": "cytotoxicity against RPMI 8402 cells (in words)", "setting": "[2]", "value": "appreciable cytotoxicity"}, {"measurement": "IC50", "setting": "[2]; rpmi 8402 cells, 96 h", "value": 7.3, "unit": "µM"}, {"measurement": "IC50", "setting": "[3]; cpt-k5 cells, 96 h", "value": "> 122", "unit": "µM"}]}
{"molecule": "6,7-Dimethoxy-1,2-dimethyl-3-(3, 4-methylenedioxyphenyl)isoquinolinium methosulfate [Compound 14b]", "values": [{"measurement": "Topo I-mediated DNA cleavage (REC, Relative Effective Concentration)", "setting": "human topoisomerase I", "value": 1000}, {"measurement": "Topo II-mediated DNA cleavage (REC, Relative Effective Concentration)", "setting": "[1]", "value": 1000}, {"measurement": "cytotoxicity against RPMI 8402 cells (in words)", "setting": "[2]", "value": "appreciable cytotoxicity"}, {"measurement": "IC50", "setting": "[2]; rpmi 8402 cells, 96 h", "value": 6.7, "unit": "µM"}, {"measurement": "IC50", "setting": "[3]; cpt-k5 cells, 96 h", "value": 11, "unit": "µM"}]}
{"molecule": "6,7-Dimethoxy-1, 2-dimethyl-3-(3, 4-dimethoxyphenyl)isoquinolinium methosulfate [Compound 14a]", "values": [{"measurement": "Topo I-mediated DNA cleavage (REC, Relative Effective Concentration)", "setting": "human topoisomerase I", "value": ">1000"}, {"measurement": "Topo II-mediated DNA cleavage (REC, Relative Effective Concentration)", "setting": "[1]", "value": ">1000"}, {"measurement": "IC50", "setting": "[2]; rpmi 8402 cells, 96 h", "value": 43, "unit": "µM"}, {"measurement": "IC50", "setting": "[3]; cpt-k5 cells, 96 h", "value": 39, "unit": "µM"}]}
{"molecule": "8-Methyl-2,3,10,11-Tetramethoxydibenzo[a,g]quinolizinium acetosulfate [Compound 2a]", "values": [{"measurement": "Topo I-mediated DNA cleavage (REC, Relative Effective Concentration)", "setting": "human topoisomerase I", "value": 10}, {"measurement": "Topo II-mediated DNA cleavage (REC, Relative Effective Concentration)", "setting": "[1]", "value": ">1000"}, {"measurement": "IC50", "setting": "[2]; rpmi 8402 cells, 96 h", "value": 4.9, "unit": "µM"}, {"measurement": "IC50", "setting": "[3]; cpt-k5 cells, 96 h", "value": 20, "unit": "µM"}]}
{"molecule": "8-Methyl-3,4,10,11-tetramethoxydibenzo[a,g]quinolizinium acetosulfate [Compound 2b]", "values": [{"measurement": "Topo I-mediated DNA cleavage (REC, Relative Effective Concentration)", "setting": "human topoisomerase I", "value": ">1000"}, {"measurement": "Topo II-mediated DNA cleavage (REC, Relative Effective Concentration)", "setting": "[1]", "value": 100}, {"measurement": "IC50", "setting": "[2]; rpmi 8402 cells, 96 h", "value": 0.4, "unit": "µM"}, {"measurement": "IC50", "setting": "[3]; cpt-k5 cells, 96 h", "value": 2, "unit": "µM"}]}
{"molecule": "COc1cc2cc3c4ccc5c(c4cc[n+]3c(C)c2cc1OC)OCO5", "note": "[Compound 2c, 8-Methyl-3,4-methylenedioxy-10,11-dimethoxydibenzo[a,g]quinolizinium acetosulfate]", "values": [{"measurement": "Topo I-mediated DNA cleavage (REC, Relative Effective Concentration)", "setting": "human topoisomerase I", "value": 10}, {"measurement": "Topo II-mediated DNA cleavage (REC, Relative Effective Concentration)", "setting": "[1]", "value": 10}, {"measurement": "IC50", "setting": "[2]; [4]", "value": 2, "unit": "µM"}, {"measurement": "IC50", "setting": "[3]; [5]", "value": 41, "unit": "µM"}]}
{"molecule": "COc1cc2c(cc1OC)-c1cc3cc(OC)c(OC)cc3c(C)[n+]1CC2", "note": "[Compound 7a, 5,6-Dihydro-8-methyl-2,3,10,11-tetramethoxydibenzo[a,g]quinolizinium acetosulfate]", "values": [{"measurement": "Topo I-mediated DNA cleavage (REC, Relative Effective Concentration)", "setting": "human topoisomerase I", "value": 5}, {"measurement": "Topo II-mediated DNA cleavage (REC, Relative Effective Concentration)", "setting": "[1]", "value": ">1000"}, {"measurement": "IC50", "setting": "[2]; [4]", "value": 5.9, "unit": "µM"}, {"measurement": "IC50", "setting": "[3]; [5]", "value": "> 20", "unit": "µM"}]}
{"molecule": "COc1cc2cc3[n+](c(C)c2cc1OC)CCc1c-3ccc(OC)c1OC", "note": "[Compound 7b, 5,6-Dihydro-8-methyl-3,4,10,11-tetramethoxydibenzo[a,g]quinolizinium acetosulfate]", "values": [{"measurement": "Topo I-mediated DNA cleavage (REC, Relative Effective Concentration)", "setting": "human topoisomerase I", "value": 1000}, {"measurement": "Topo II-mediated DNA cleavage (REC, Relative Effective Concentration)", "setting": "[1]", "value": 1000}, {"measurement": "IC50", "setting": "[2]; [4]", "value": 6.9, "unit": "µM"}, {"measurement": "IC50", "setting": "[3]; [5]", "value": 14, "unit": "µM"}]}
{"molecule": "COc1cc2c(cc1OC)-c1cc3cc(OC)c(OC)cc3c[n+]1CC2.[Cl-]", "note": "[Compound 8a, 5,6-Dihydro-2,3,10,11-tetramethoxydibenzo[a,g]quinolizinium chloride]", "values": [{"measurement": "Topo I-mediated DNA cleavage (REC, Relative Effective Concentration)", "setting": "human topoisomerase I", "value": 20}, {"measurement": "Topo II-mediated DNA cleavage (REC, Relative Effective Concentration)", "setting": "[1]", "value": ">1000"}, {"measurement": "IC50", "setting": "[2]; [4]", "value": 10, "unit": "µM"}, {"measurement": "IC50", "setting": "[3]; [5]", "value": 18, "unit": "µM"}]}
{"molecule": "COc1cc2cc3[n+](cc2cc1OC)CCc1c-3ccc(OC)c1OC.[Cl-]", "note": "[Compound 8b, 5,6-Dihydro-3,4,10,11-tetramethoxydibenzo[a,g]quinolizinium chloride]", "values": [{"measurement": "Topo I-mediated DNA cleavage (REC, Relative Effective Concentration)", "setting": "human topoisomerase I", "value": ">1000"}, {"measurement": "Topo II-mediated DNA cleavage (REC, Relative Effective Concentration)", "setting": "[1]", "value": 1000}, {"measurement": "IC50", "setting": "[2]; [4]", "value": 9, "unit": "µM"}, {"measurement": "IC50", "setting": "[3]; [5]", "value": 6.4, "unit": "µM"}]}
{"molecule": "COc1ccc(-c2cc3cc(OC)c(OC)cc3c(C)n2)cc1OC", "note": "[Compound 12a, 6,7-Dimethoxy-1-methyl-3-(3,4-dimethoxyphenyl)isoquinoline]", "values": [{"measurement": "Topo I-mediated DNA cleavage (REC, Relative Effective Concentration)", "setting": "human topoisomerase I", "value": ">1000"}, {"measurement": "IC50", "setting": "[2]; [4]", "value": 13, "unit": "µM"}, {"measurement": "IC50", "setting": "[3]; [5]", "value": 24, "unit": "µM"}]}
